From patent US20260248799A1, “COMBINATIONS OF RETINALDEHYDE DEHYDROGENASE 1 (RALDH1) INHIBITORS AND IMMUNOSTIMULATORS AND METHODS USING SAME” (The Trustees of the University of Pennsylvania, priority 2023, published 2026) come the findings set out here.

Series [1] has as its system SNU398 human HCC cells. Description: AldeRed (Aldefluor) assay in SNU398 cells. Type of series: cell-based. The method, then:
The AldeRed assay (EMD Millipore) was performed according to manufacturer's instructions to identify cells with ALDH activity. In brief, single-cell suspensions of Huh7, Huh1, SNU449, SNU398, HEP3B, PLC, Hepa 1-6, Hep55, and AL458A cultured cells or single-cell suspension generated from enzymatic digestion of tumors generated from transplantation of these cells in mice (as indicated in figure legends) were incubated with a fluorescent and non-toxic ALDH substrate (AldeRed 588-A); the fluorescent product accumulates in cells proportional to their ALDH activity. The amount of fluorescence produced is measured by flow cytometry. The ALDH inhibitor diethylaminobenzaldehyde (DEAB, provided with the AldeRed assay kit) was used as a negative control for background fluorescence assessment.
The Aldefluor assay has been used to identify and isolate cells with high ALDH activities. This assay is based on the principle that ALDH can convert the ALDH-substrate, Bodipy-aminoacetaldehyde (BAAA) into Bodipy-aminoacetate (BAA) which is retained inside the cells. BAAA is uncharged and can diffuse freely into intact viable cells, however BAA cannot cross the membrane due to its net negative charge, which makes remain in the cells and the assay buffer prevents efflux of the BAA from the cells. Therefore, the amount of BAA fluorescence in cells is proportional to ALDH activity and can be measured using a flow cytometer. A specific inhibitor of ALDH, diethylaminobenzaldehyde (DEAB), is used for background fluorescence control.

The subject of series [2] is SNU398 cells. The series is described as follows: In vitro proliferation and viability of human HCC cell lines. Type of series: cell-based. The conditions noted are these: SNU398, 1, 10, 100 and 1000 nM. The method, then:
FIG. 20D: LC-MS for ATRA on Hepa1-6 (mouse HCC cell line) or SNU398 (human HCC cell line). […] Two independent experiments were performed with at least three replicates per experimental group. Unpaired t test, two-tailed. *, P<0.05; **, P<0.01; ***, P<0.001. […] Cell proliferation was measured by counting live cell numbers at each time point. […] Cell proliferation was measured by counting live cell numbers at each time point.
Cell viability was measured by flow cytometry (FCM) with 7-AAD staining (Y-axis indicates percentage of 7-AAD negative cells).
1×10^4~2×10^5 of Huh7, Huh1, Hepa 1-6, and Hep55 tumor cells were plated in triplicate in 48-well plates or 6-well plates. Viable cell numbers were counted every day for three to four days.

The nature of series [3]: Chow PK of C86, 15-day study in CD-1 mice. Type of series: in vivo, mouse. The conditions noted are these: 15-day period. The protocol:
FIG. 31A: Completed blood count (CBC) was performed at IDEXX on whole blood collected from indicated RALDH1 genotypes (X-axis). One experiment with four replicates per experimental group. One-way ANOVA. *p<0.05, **p<0.01, ***p<0.001. FIG. 31B: Weights of mice of the indicated RALDH1 genotypes. Siblings were used for all genotypes to control for confounding factors. One experiment with four replicates per experimental group. One-way ANOVA. *p<0.05, **p<0.01, ***p<0.001. […] Diet (or PO) #A, B, and C (shown in the inbox of individual graphs) corresponds to drug dose of 10, 30, and 60 mg/kg respectively. Mice had free access to food and water during the 15-day study.
The PK studies were done at NIH or a commercial CRO—Pharmacon using their in-house standard protocol. […] For C99, IV and PO, performed at NIH using CD-1 mice; formulation: 20% HPbCD in saline.

In series [4] the target is T1, Cholinesterase, Acetyl, ACES (Homo sapiens, UniProt P22303).
T1 construct: Eurofins Cerep Panlabs (contract panel)
The series is described as follows: Safetyscreen: Acetyl cholinesterase. The series is classed as biochemical. The settings on record: read-out: % Inh. Cholinesterase, Acetyl, ACES.

For series [5], the target named is T2, Cyclooxygenase COX-2 (Homo sapiens, UniProt P35354).
T2 construct: Eurofins Cerep Panlabs (contract panel)
The series is described as follows: Safetyscreen: COX-2. The series is classed as biochemical. The conditions noted are these: read-out: % Inh. Cyclooxygenase COX-2.

Series [6] has as its target T3, Monoamine Oxidase MAO-B (Homo sapiens, UniProt P27338).
T3 construct: Eurofins Cerep Panlabs (contract panel)
The series is described as follows: Safetyscreen: MAO-B. Type of series: biochemical. The settings on record: read-out: % Inh. Monoamine Oxidase MAO-B.

For series [7], the target named is T4, Peptidase, CTSG (Cathepsin G) (Homo sapiens, UniProt P08311).
T4 construct: Eurofins Cerep Panlabs (contract panel)
Description: Safetyscreen: Cathepsin G. The series is classed as biochemical. The conditions noted are these: read-out: % Inh. Peptidase, CTSG (Cathepsin G).

For series [8], the system named is Phosphodiesterase PDE4. Description: Safetyscreen: PDE4. The series is classed as biochemical, human. The conditions noted are these: 10 μM.
Series [9] has as its target T5, Adrenergic β2 (Homo sapiens, UniProt P07550).
T5 construct: Eurofins Cerep Panlabs (contract panel)
The series is described as follows: Safetyscreen: Adrenergic β2. Type of series: binding. The settings on record: read-out: % Inh. Adrenergic β2.

The test system of series [10] is Calcium Channel L-Type, Benzothiazepine. The series is described as follows: Safetyscreen: Ca channel L-type, benzothiazepine. The conditions noted are these: 10 μM. The series is classed as binding, rat.
Series [11] relates to Calcium Channel L-Type, Phenylalkylamine. The series is described as follows: Safetyscreen: Ca channel L-type, phenylalkylamine. Type of series: binding, rat. The conditions noted are these: 10 μM.
Series [12] addresses T6, Chemokine CXCR2 (IL-8RB) (Homo sapiens, UniProt P25025).
T6 construct: purchased Eurofins Cereps Panlabs
The series is described as follows: Safetyscreen: CXCR2. The conditions noted are these: read-out: % Inh. Chemokine CXCR2 (IL-8RB). Type of series: binding.

Series [13] addresses T7, Glutamate, Metabotropic, mGlu5 (Homo sapiens, UniProt P41594).
T7 construct: purchased Eurofins Cereps Panlabs
The series is described as follows: Safetyscreen: mGlu5. Type of series: binding. The settings on record: read-out: % Inh. Glutamate, Metabotropic, mGlu5.

Series [14] relates to Glutamate, NMDA, Glycine. The series is described as follows: Safetyscreen: NMDA, Glycine. The series is classed as binding, rat. The settings on record: 10 μM.
Series [15] concerns Glutamate, NMDA, Phencyclidine. The series is described as follows: Safetyscreen: NMDA, Phencyclidine. Type of series: binding, rat. The settings on record: 10 μM.
For series [16], the target named is T8, Muscarinic M4 (Homo sapiens, UniProt P08173).
T8 construct: Eurofins Cereps Panlabs (contract panel)
Description: Safetyscreen: Muscarinic M4. The settings on record: read-out: % Inh. Muscarinic M4. The series is classed as binding.

The subject of series [17] is Nicotinic Acetylcholine. Description: Safetyscreen: Nicotinic Acetylcholine. The settings on record: 10 μM. Type of series: binding, human.
For series [18], the target named is T9, Transporter, GABA (Rattus norvegicus, UniProt P23978).
T9 construct: purchased Eurofins Cereps Panlabs
The series is described as follows: Safetyscreen: GABA transporter. Type of series: binding. The settings on record: read-out: % Inh. Transporter, GABA.

Series [19] has as its target T10, Transporter, Serotonin (5-Hydroxytryptamine) (SERT) (Homo sapiens, UniProt P31645).
T10 construct: purchased Eurofins Cereps Panlabs
The series is described as follows: Safetyscreen: SERT. Type of series: binding. The conditions noted are these: read-out: % Inh. Transporter, Serotonin (5-Hydroxytryptamine) (SERT).

The nature of series [20]: Toxicity observations with Raldh1-INH. The conditions noted are these: mouse, in vivo.
Description: Male CD1 or C57BL/6J mice between 6 and 8 weeks old and weighing approximately 20 to 30 grams were dosed with compound 86, compound 91, and compound 99 at 2 mg/kg (IV), 10 mg/kg (PO), and 10 or 30 mg/kg (IP). The compounds were formulated using a 20% hydroxypropyl-beta-cyclodextrin (HPbCD) solution in saline, was made on the day of dosing or directly prior to dosing. Each treatment group consisted of three mice, and plasma was collected at 5 minutes, 15 minutes, 30 minutes, 1 hour, 2 hours, 4 hours, 8 hours, 12 hours, and 24 hours post-dose for IV administration and at 15 minutes, 30 minutes, 1 hour, 2 hours, 4 hours, 8 hours, 12 hours, and 24 hours post-dose for PO administration. Approximately 0.025 mL of blood was collected from the dorsal metatarsal vein at each time point. […] Plasma samples were then stored in polypropylene tubes, quickly frozen, and kept at −75° C. until analyzed by LC/MS/MS. The following pharmacokinetic parameters were measured: Terminal half-life (T½), Concentration at immediately after injection (C0), Maximum concentration (Cmax), Time to reach max concentration (Tmax), Clearance (CL), Volume of distribution (Vd), Area under the curve (AUClast), and bioavailability (% F). Animals were also monitored during the in-life phase by once daily cage side observations; any adverse clinical signs were noted as part of the PK report.

Molecules are shown by their SMILES.

T4 sequence (P08311 21-244): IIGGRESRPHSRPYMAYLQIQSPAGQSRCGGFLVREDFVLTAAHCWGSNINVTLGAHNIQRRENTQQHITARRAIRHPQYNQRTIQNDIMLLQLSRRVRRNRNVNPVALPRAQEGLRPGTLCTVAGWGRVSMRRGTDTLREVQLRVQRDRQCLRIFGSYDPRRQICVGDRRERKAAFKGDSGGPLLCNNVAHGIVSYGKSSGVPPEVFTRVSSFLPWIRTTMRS
T3 sequence (P27338 whole entry): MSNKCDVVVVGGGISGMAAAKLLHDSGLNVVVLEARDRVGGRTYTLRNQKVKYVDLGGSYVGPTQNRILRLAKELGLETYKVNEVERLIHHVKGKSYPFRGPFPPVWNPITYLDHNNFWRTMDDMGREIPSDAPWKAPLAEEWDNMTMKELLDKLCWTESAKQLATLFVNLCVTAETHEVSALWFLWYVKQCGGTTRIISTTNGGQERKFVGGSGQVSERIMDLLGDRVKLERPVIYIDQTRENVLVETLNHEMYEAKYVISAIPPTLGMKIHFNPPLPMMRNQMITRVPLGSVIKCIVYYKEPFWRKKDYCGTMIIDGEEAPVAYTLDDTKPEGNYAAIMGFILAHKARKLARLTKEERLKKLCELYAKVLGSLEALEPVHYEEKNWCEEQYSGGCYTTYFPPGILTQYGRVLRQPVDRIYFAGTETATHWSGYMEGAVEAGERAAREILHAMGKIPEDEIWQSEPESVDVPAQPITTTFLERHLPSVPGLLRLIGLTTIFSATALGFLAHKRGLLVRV
T2 sequence (P35354 18-604): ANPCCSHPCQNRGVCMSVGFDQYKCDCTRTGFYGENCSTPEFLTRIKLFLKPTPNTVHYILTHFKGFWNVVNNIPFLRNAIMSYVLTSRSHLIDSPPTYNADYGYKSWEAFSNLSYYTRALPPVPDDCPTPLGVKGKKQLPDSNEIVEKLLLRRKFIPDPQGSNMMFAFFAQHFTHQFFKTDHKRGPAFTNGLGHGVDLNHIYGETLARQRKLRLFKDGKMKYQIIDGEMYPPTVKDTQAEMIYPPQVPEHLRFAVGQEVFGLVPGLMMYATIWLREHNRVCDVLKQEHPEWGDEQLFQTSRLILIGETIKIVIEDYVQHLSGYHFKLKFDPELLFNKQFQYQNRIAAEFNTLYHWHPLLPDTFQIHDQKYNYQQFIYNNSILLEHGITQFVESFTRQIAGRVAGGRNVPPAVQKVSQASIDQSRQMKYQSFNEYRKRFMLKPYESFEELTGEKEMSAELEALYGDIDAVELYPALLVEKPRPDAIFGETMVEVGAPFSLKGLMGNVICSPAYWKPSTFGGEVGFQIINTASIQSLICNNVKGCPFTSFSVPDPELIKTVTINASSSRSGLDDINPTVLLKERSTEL
T5 sequence (P07550 whole entry): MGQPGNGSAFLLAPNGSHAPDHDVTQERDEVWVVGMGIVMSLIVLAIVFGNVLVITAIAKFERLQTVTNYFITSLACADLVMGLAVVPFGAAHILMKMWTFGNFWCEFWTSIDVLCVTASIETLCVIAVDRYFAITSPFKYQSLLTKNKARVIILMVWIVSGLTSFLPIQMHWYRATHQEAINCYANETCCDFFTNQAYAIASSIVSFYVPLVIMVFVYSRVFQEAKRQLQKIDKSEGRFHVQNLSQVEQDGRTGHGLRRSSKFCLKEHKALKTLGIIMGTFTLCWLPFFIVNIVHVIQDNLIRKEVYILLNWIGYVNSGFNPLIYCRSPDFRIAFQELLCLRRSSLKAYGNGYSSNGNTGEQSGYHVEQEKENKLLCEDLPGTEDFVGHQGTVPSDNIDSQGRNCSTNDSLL
T7 sequence (P41594 21-1212): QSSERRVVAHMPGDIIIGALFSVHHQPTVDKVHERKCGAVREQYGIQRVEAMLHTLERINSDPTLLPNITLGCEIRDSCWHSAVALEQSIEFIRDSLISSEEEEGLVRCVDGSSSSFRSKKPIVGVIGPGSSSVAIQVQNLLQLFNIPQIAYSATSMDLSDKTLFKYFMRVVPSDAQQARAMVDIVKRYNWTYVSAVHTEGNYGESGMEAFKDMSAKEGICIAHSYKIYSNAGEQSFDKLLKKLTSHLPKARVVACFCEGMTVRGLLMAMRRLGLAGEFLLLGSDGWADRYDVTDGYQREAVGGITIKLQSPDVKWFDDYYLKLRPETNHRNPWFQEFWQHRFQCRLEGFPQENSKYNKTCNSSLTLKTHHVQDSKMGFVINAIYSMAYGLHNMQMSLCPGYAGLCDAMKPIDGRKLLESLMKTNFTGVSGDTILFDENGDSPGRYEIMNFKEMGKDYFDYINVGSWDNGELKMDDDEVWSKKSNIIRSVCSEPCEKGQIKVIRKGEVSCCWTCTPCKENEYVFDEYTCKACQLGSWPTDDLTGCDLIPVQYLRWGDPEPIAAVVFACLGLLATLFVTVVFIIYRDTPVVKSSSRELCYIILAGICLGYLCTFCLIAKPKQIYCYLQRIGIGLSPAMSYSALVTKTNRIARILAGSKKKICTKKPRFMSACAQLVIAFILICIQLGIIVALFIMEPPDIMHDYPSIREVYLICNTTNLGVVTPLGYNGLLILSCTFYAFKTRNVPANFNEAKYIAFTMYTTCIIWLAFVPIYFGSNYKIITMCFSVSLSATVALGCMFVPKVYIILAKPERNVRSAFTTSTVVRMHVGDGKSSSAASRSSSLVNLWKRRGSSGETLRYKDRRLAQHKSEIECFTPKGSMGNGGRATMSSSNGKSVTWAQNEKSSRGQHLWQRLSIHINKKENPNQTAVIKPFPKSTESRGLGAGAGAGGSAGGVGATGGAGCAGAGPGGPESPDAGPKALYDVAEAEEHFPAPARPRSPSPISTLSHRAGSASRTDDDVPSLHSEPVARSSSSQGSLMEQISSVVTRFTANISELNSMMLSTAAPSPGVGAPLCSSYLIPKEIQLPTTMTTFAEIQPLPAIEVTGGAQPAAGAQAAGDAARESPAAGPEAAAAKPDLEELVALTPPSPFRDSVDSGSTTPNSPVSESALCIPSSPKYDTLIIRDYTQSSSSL
T6 sequence (P25025 whole entry): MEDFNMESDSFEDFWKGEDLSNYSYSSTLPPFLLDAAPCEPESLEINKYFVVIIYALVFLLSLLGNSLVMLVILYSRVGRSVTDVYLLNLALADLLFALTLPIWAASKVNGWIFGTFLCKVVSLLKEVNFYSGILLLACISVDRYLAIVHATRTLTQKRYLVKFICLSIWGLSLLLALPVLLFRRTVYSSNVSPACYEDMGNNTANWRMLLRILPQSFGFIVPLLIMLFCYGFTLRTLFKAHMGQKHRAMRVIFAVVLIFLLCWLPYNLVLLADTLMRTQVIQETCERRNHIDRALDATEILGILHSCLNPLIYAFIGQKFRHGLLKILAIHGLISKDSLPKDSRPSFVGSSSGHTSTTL
T1 sequence (P22303 32-614): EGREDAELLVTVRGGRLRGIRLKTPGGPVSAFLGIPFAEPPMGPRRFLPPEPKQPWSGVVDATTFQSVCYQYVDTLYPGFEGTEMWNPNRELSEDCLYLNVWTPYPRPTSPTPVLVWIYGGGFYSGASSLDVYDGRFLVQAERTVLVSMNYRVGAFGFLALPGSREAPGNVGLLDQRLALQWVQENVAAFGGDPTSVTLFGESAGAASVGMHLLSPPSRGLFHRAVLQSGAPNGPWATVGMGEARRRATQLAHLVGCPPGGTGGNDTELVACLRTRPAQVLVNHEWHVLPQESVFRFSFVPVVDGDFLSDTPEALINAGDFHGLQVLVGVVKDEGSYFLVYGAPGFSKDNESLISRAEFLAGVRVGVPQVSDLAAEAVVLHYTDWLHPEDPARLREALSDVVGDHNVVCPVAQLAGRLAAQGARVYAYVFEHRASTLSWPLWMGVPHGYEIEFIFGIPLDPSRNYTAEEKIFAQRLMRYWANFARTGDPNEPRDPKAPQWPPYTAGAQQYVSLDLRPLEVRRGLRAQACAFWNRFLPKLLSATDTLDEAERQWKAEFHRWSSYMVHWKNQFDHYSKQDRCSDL
T8 sequence (P08173 whole entry): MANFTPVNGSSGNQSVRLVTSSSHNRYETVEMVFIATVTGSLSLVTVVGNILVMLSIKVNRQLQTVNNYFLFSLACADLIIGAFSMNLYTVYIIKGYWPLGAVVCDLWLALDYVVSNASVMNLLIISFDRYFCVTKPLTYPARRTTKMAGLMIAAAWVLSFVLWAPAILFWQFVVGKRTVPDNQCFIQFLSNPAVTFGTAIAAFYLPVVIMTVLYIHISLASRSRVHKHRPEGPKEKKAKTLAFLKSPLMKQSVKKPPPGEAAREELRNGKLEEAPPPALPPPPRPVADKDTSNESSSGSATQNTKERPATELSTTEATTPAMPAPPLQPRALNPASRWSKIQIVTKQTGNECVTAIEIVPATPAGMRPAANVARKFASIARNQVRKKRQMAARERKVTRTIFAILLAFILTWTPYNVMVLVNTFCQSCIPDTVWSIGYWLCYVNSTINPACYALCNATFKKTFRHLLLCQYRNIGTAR

For the compound `CS(=O)(=O)N1CCN(C(=O)c2cnc3ccc(F)cc3c2N2CCC(C#N)(c3ccccc3)CC2)CC1` [Compound C-86, 1-(6-fluoro-3-(4-(methylsulfonyl)piperazine-1-carbonyl)quinolin-4-yl)-4-phenylpiperidine-4-carbonitrile], in series [1] (FIGS. 7-8), the “RALDH activity, Aldered assay, in HCC cells” value was “significantly reduced RALDH activity”. Also, the “RALDH activity as detected by Aldered (Aldefluor) assay” value in series [1] (SNU398 cells in vitro, 100 nM, DMSO control) is reported as “abrogated”. For the same compound, in series [2], the “HCC cell growth in vitro” value is given as “did not inhibit HCC cell growth in vitro”. The “drug exposure over time” value in series [3] (chow, 10, 30 and 60 mg/kg) is “consistent drug exposure over time”. The body weight entry in series [3] (chow) is reported as “without affecting body weight”. Also, the inhibition at 10 µM in series [4] came out at 3%; in series [5], 0%; in series [6] it was 4%; in series [7], 0%; in [9] it was 11%; in [12], 8%. Moreover, the inhibition at 10 µM in [13] came to 16%; in [16], 13%; in series [18], 4%; in series [19] it was 17%. Moreover, in series [8], the “% Inh. Phosphodiesterase PDE4” value is recorded as −7%. Further, the “% Inh. Calcium Channel L-Type, Benzothiazepine” value in [10] is on record as −3%. Besides, in series [11], the “% Inh. Calcium Channel L-Type, Phenylalkylamine” value was 21%. The “% Inh. Glutamate, NMDA, Glycine” value in series [14] amounted to 20%. In addition, the “% Inh. Glutamate, NMDA, Phencyclidine” value in [15] is given as 5%. Moreover, in [17], the “% Inh. Nicotinic Acetylcholine” value came out at 5%. For the same compound, the signs of toxicity entry in [20] is given as “no signs of toxicity have been observed”.
